# From patent US5958886A, “Carnitine-containing peptides and a method for using the same” (Sigma-Tau Pharmaceuticals, Inc., priority 1998, dated 1999)
# Non-standard residues stand in square brackets, D forms with d. Residues, ends and D or L forms follow the SMILES beside them. Sar = CNCC(=O)O
# Experiments:
# peptide carrier = target: T1, peptide carrier (Homo sapiens, UniProt P46059); experiment: Inhibition of glycyl-sarcosine transport via the peptide carrier in Caco-2 cells; format: cell-based
# T1 construct: endogenous in cells; host or cells: Caco-2 cells
# T1 sequence (P46059 1-708): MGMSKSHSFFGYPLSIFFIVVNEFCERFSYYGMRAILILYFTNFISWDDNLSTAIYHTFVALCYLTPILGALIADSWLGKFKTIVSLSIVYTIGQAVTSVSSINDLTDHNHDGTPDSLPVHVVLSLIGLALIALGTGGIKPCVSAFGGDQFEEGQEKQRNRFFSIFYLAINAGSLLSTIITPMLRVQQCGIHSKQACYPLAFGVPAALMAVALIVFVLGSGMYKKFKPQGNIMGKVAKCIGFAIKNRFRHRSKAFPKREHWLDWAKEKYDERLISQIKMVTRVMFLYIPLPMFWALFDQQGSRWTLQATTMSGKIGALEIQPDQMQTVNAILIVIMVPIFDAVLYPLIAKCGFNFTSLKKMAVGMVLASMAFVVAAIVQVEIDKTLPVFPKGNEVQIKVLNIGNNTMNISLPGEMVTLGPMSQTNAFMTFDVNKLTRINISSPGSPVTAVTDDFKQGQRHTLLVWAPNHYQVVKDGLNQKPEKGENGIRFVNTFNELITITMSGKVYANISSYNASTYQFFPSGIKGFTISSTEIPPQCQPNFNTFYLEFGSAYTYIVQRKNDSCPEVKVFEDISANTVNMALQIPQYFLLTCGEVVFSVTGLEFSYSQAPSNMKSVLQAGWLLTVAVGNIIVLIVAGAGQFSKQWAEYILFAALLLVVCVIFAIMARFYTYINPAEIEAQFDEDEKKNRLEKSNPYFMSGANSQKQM
# Excerpt: Carnityl-alanyl-alanine (CAA) is a peptide derivative of carnitine. In this experiment, the ability of CAA to compete with glycyl-sarcosine for transport via the peptide carrier was studied in Caco-2 cells. These cells are a good model system for the human intestine and they express the peptide carrier as does the human intestine. Glycyl-sarcosine is a standard substrate for the peptide carrier. If CAA is taken up by the peptide carrier it is expected to compete with glycyl-sarcosine for transport via the carrier and thus inhibit the transport.
# [1] = target: T2, peptide carrier from human intestine (Homo sapiens, UniProt P46059); experiment: Charge transfer in Xenopus oocytes expressing the peptide carrier from human intestine (electrophysiological approach); format: cell-based; details: Xenopus oocytes expressing human intestinal peptide carrier; exposure to 10 mM
# T2 construct: expressed in transfected cells; host or cells: Xenopus oocytes injected with peptide transporter mRNA
# T2 sequence (P46059 1-708): T1 sequence (P46059 1-708)
# Excerpt: In this experiment, Xenopus (frog) oocytes which were made to express the peptide carrier from human intestine by injection of its peptide transporter mRNA were used to study the transport of CAA via the carrier. The peptide carrier uses the energy from a proton gradient and peptide transport via the carrier leads to a transfer of positive charge into the oocytes. This charge transfer can be monitored using the electrophysiological approach. If CAA is transported via the peptide carrier, exposure of the oocytes to CAA is expected to result in the transfer of positive charge.
Compound,"inhibition of glycyl-sarcosine transport (in words) (peptide carrier; Caco-2 cells, under similar conditions)",charge transfer into oocytes (in words) [1],"inhibition of the transport of glycylsarcosine (peptide carrier; Caco-2 cells, at 10 mM) [%]","inhibition of the transport of glycylsarcosine (peptide carrier; Caco-2 cells, at 20 mM) [%]",affinity for the intestinal peptide carrier (peptide carrier; concluded from the Caco-2 and oocyte experiments)
"C[N+](C)(C)CC(O)CC(=O)[O-] (stereo not drawn) [Free carnitine, Carnitine]",does not inhibit,,,,
"CN(CC(=O)O)C(=O)CN [glycyl-sarcosine, Glycyl-sarcosine, reference compound] (H-Gly-[Sar]-OH)",,charge transfer found,,,
Carnityl-alanyl-alanine [CAA],,induced charge transfer,35,80,millimolar range
